Data set [1] is filed under the species Rattus norvegicus. Briefly: Compound was tested for percentage inhibition of isometric force in response to a test compound in isolated rat bladder strips pre-contracted with carbachol at a concentration of 20 uM. It counts as functional.
The target of data set [2] is Calcium-activated potassium channel subunit alpha-1 KCNMA1 (Mus musculus) (UniProt Q08460). Briefly: Compound was tested for its effect on maxi-K-mediated outward current in Xenopus laevis oocytes expressing the cloned maxi-K channel mslo at a concentration of 20 uM. The conditions noted are these: oocyte.
Sequence of Calcium-activated potassium channel subunit alpha-1 KCNMA1 (Mus musculus) (Q08460 whole entry, looked up): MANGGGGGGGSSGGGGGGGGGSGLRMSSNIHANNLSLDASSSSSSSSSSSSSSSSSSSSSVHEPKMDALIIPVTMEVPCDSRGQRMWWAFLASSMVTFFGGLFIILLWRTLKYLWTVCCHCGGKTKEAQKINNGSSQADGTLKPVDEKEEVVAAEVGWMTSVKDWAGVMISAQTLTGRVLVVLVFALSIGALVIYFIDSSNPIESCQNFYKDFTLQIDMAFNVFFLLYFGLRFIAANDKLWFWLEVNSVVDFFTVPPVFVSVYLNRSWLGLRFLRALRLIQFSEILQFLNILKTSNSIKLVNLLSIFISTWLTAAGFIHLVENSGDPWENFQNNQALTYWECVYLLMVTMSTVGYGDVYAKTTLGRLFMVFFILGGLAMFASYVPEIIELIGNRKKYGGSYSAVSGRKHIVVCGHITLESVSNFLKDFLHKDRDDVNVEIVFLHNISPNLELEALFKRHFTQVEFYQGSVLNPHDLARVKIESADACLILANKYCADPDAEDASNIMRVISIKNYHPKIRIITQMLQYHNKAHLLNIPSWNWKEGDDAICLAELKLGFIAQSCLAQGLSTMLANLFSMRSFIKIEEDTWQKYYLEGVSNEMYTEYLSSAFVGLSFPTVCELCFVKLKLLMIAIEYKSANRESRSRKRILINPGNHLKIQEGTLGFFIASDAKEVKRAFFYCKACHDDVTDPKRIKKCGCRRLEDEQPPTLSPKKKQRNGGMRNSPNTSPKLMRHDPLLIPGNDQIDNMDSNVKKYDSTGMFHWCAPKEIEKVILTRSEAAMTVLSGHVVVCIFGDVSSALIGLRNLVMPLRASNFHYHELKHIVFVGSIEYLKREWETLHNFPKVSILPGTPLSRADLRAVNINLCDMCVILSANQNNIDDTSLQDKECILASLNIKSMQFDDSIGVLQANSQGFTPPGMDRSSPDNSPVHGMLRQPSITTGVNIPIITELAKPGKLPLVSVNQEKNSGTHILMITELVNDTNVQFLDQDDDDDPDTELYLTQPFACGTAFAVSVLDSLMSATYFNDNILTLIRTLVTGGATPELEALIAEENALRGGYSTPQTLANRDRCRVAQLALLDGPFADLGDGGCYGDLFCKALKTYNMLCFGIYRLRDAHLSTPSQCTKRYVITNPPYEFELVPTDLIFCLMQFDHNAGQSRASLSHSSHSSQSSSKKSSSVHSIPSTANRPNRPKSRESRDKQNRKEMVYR
Data set [3] is filed under the species Rattus norvegicus. Description: Compound was tested for percentage inhibition of isometric force in response to a test compound in isolated rat bladder strips pre-contracted with carbachol at a concentration of 3 uM. In kind it is functional.
The target in data set [4] is Calcium-activated potassium channel subunit alpha-1 KCNMA1 (Mus musculus) (UniProt Q08460). Briefly: Compound was tested for its effect on maxi-K-mediated outward current in Xenopus laevis oocytes expressing the cloned maxi-K channel mslo at a concentration of 10 uM. Conditions: oocyte.
For data set [5], the target named is Calcium-activated potassium channel subunit alpha-1 KCNMA1 (Homo sapiens) (UniProt Q12791). Briefly: Compound was tested for its effect on maxi-K-mediated outward current in Xenopus laevis oocytes expressing the cloned maxi-K channel hslo at a concentration of 1 uM. The conditions noted are these: oocyte.
Sequence of Calcium-activated potassium channel subunit alpha-1 KCNMA1 (Homo sapiens) (Q12791 whole entry, looked up): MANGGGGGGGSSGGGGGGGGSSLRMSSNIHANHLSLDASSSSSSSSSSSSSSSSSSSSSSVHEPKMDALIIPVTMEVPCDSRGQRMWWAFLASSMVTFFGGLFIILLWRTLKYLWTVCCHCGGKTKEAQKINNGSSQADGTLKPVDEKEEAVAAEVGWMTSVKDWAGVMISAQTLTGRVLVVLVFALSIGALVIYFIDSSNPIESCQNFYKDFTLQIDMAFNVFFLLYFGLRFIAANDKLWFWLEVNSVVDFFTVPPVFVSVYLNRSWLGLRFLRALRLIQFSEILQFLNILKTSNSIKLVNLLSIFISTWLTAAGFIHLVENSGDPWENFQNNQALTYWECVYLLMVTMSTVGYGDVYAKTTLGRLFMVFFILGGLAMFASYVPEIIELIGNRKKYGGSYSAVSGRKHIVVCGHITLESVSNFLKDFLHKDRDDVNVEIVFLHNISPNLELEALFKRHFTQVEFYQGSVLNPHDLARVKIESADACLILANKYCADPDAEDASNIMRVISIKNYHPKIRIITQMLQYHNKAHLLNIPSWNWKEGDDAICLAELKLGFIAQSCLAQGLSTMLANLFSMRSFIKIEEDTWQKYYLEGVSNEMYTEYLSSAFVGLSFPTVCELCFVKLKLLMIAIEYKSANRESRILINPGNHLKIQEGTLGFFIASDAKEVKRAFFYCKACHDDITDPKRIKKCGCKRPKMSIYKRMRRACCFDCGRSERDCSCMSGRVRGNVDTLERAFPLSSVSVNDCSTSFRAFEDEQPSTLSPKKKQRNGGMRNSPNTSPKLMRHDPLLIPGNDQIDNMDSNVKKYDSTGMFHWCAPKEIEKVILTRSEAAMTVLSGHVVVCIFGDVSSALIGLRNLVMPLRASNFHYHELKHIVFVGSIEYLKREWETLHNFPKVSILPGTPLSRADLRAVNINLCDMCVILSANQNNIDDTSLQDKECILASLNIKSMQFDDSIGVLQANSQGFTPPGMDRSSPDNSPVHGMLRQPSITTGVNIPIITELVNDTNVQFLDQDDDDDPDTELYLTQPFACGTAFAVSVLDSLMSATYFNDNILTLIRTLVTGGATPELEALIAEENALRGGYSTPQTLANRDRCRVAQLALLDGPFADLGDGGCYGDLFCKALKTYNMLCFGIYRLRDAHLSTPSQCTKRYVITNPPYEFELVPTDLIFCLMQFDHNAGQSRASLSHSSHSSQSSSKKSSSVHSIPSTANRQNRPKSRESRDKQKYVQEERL

In the data set filed under Rattus norvegicus [1], `O=c1[nH]c2cc(C(F)(F)F)ccc2n1-c1cc(Cl)ccc1O` showed an inhibition at 20 µM of 8%. Further, the Increase in data set [2] came to 131.8%.

`Oc1ccc(Cl)cc1-n1nc(-c2cc(C(F)(F)F)cc(C(F)(F)F)c2)nc1O` gave an inhibition at 3 µM in the data set listed under Rattus norvegicus [3] of 15%. Also, the Increase in data set [2] is on record as 154.2%.

For the compound `O=c1[nH]c(-c2ccc(C(F)(F)F)cc2)nn1-c1cc(Cl)ccc1O`, the inhibition at 3 µM in the data set filed under Rattus norvegicus [3] worked out at 22%. In the data set filed under Rattus norvegicus [1], this compound registered an inhibition at 20 µM of 87%. For the same compound, the Increase in data set [2] was 196.8%.

In the case of `Oc1ccc(Cl)cc1-n1nc(-c2ccc(C(F)(F)F)c(Cl)c2)nc1O`, the inhibition at 3 µM in the data set listed under Rattus norvegicus [3] stood at 5%. Further, in data set [2], the Increase is 198.5%.

In turn, `Oc1ccc(Cl)cc1-n1nc(-c2ccc(C(F)(F)F)cc2C(F)(F)F)nc1O` showed an inhibition at 3 µM in the data set filed under Rattus norvegicus [3] of 46%. In addition, the inhibition at 20 µM in the data set listed under Rattus norvegicus [1] worked out at 94%. Moreover, the Increase in data set [2] was 175.5%.

Regarding `Oc1ccc(Cl)cc1-n1nc(-c2cccc(C(F)(F)F)c2)nc1O`, in the data set listed under Rattus norvegicus [3], the inhibition at 3 µM was 42%. In addition, the Increase in data set [4] is 161.5%.

`Oc1ccc(Cl)cc1-n1nc(-c2ccccc2C(F)(F)F)nc1O` had an inhibition at 3 µM in the data set filed under Rattus norvegicus [3] of 34%. Besides, testing at 20 µM in the data set listed under Rattus norvegicus [1] gave an inhibition of 90%. The Increase in data set [2] is listed as 117.1%.

As to `Oc1ccc(Cl)cc1-n1nc(-c2ccccc2)nc1O`, the Increase in data set [5] stood at 91.4%. This compound also yielded an inhibition at 3 µM in the data set listed under Rattus norvegicus [3] of 35%. In addition, the inhibition at 20 µM in the data set listed under Rattus norvegicus [1] was 89.4%.
